# Columns and labels:
# [1] = system: G2T6 (Na+) dimeric HTelo G4 DNA; assay: Emission titration with G2T6 (Na+); assay type: binding, human; details: Table S2, unit not given, ligand 2 μM, 100 mM NaCl, 10 mM Li cacodylate, pH 7.3, exc 440 nm, em 590 nm, triplicate
# Method: (§1) Next, emission titrations were carried out with the emissive Pt^II compounds M2 and D3–8 and G4/duplex DNA to obtain association constants. Both Na^+ and K^+ stabilized monomeric and dimeric G4 DNA were investigated. Additionally, titrations were carried out with CT-DNA to evaluate the selectivity for G4 versus duplex DNA. Figure 5 summarizes the obtained results (see Figures S24–S37 and Table S2 for a full set of titration data). First discussed are the experiments conducted in Na^+ buffer, in which the G4 topology formed is antiparallel.[41] […] As discussed previously, this could potentially be caused by a “sandwiched” binding mode in which the metal-salphen complex sits between two G-quadruplex units. For dimeric metal-salphen complexes D3–8, however, there are several differences when compared to the CD melting studies. […] Upon increasing the linker length to a two-amino-acid sequence (RR and KK for compounds D4 and D5, respectively), larger Ka values were obtained with minimal change to the pattern of selectivity. […] Increasing the linker length to an eight-amino-acid sequence (RRRRRRRR) led to a similar stabilization of G2T6, while G1 stabilization increased.
# (§2) G-Quadruplex oligonucleotides were purchased from Eurogentec (Belgium), and CT-DNA was purchased from Sigma-Aldrich. Stock solutions were prepared via dilution in the appropriate buffers to concentrations of 300–400 μM determined by UV–vis measurements in which increasing amounts of DNA were added to a cuvette and the absorbance at 260 nm recorded using an Agilent Cary UV 60 spectrometer. Prior to use, the DNA stock solutions were annealed by heating at 95 °C for 5 min and then cooling to room temperature overnight.
# (§3) Experiments were carried out using a BMG Clariostar Microplate reader with Greiner Bio-One half-volume (100 μL/well) plates. Excitation was carried out at 440 nm and recorded from 500 to 700 nm in addition to a matrix scan at 590 nm. Titrations were carried out using G1, G2T1, and G2T6 (Na^+) G4 DNA (100 mM NaCl, 10 mM Li cacodylate, pH 7.3); G1, G2T1, and G2T6 (K^+) G4 DNA (100 mM KCl, 10 mM Li cacodylate, pH 7.3); and CT-DNA (100 mM KCl, 10 mM Li cacodylate, pH 7.3). Ligand concentration was kept constant at 2 μM, and the following DNA equivalents were tested: 0, 0.1, 0.2, 0.3, 0.4, 0.5, 0.75, 1, 1.5, 2, 3, and 5 (for CT-DNA 10× base pair equivalents were used, i.e., 1 to 50 BPE). Sample preparation was carried out by preparing stock solutions of double concentration ligand (4 μM) and DNA in the appropriate buffer, before 50 μL of each was added to the appropriate well and mixed. Experiments were conducted in triplicate and binding constants were obtained by curve fitting in Graphpad Prism 8 using eq 1.[46] [drawing 1] 1
# (§4) Fluorescence response (y) was fitted against DNA concentration (x); R is the machine response, K is the association constant of ligand and DNA, L is the concentration of ligand, and n is the number of binding sites per DNA. The values of L and n were varied so that that the L was equal to the number of salphen units and n was equal to the number of G4 faces per DNA. The matrix scan results were used to plot the titration curves and 500–700 nm scan results were used to confirm that expected curve shapes and shifts were observed.
# [2] = system: G2T1 (K+) dimeric HTelo G4 DNA; assay: Emission titration with G2T1 (K+); assay type: binding, human; details: Table S2, unit not given, ligand 2 μM, 100 mM KCl, 10 mM Li cacodylate, pH 7.3, exc 440 nm, em 590 nm, triplicate
# Method: as §1, §2, §3, §4
# [3] = system: G2T1 (Na+) dimeric HTelo G4 DNA; assay: Emission titration with G2T1 (Na+); assay type: binding, human; details: Table S2, unit not given, ligand 2 μM, 100 mM NaCl, 10 mM Li cacodylate, pH 7.3, exc 440 nm, em 590 nm, triplicate
# Method: as §1, §2, §3, §4
# [4] = Precipitation on addition to DNA solution (CD melting conditions); assay type: physicochemical; details: CD melting concentrations: dimeric salphen 6 μM, G1 6 μM or G2Tx 3 μM; 100 mM NaCl, 10 mM Li cacodylate, pH 7.3
# Method: First, circular dichroism (CD) melting experiments were carried out with compounds D1–8 and their monomeric analogues M1–2 via the combination of DNA and compound in which the ratio of salphen units to G4 external tetrads was kept at a constant ratio of 2:1, i.e., [monomeric salphen] = 12 μM, [dimeric salphen] = 6 μM, [G1] = 6 μM, and [G2Tx] = 3 μM. The CD melting experiments were conducted solely with Na^+ stabilized DNA, which forms an antiparallel topology in solution (cf., in the presence of K^+ a mixture of topologies is observed). During the assay the temperature was increased from 25 to 95 °C upon which the intensity of signals with negative ellipticity at ca. 265 nm and positive ellipticity at ca. 295 (characteristic of an antiparallel G4 structure) decreased—see Figure 4a. This indicates the expected unfolding of the G4 DNA structure as the temperature increases. […] From these curves, the ΔTm values for the different sequences and compounds were determined, and the results are summarized in Figure 4c (see Supplementary Table 1 for values).
# Experiments were carried out on a Jasco J-810 spectrophotometer using a 1 cm quartz cuvette. […] The signal at 295 nm was monitored as temperature was increased for 25 to 95 °C at a rate of 2 °C/min. […]
# [5] = system: human osteosarcoma U2OS cells
# Method: Cytotoxicity studies of compounds were carried out on a U-2 OS cell line (human osteosarcoma cells). These cells were grown on culture medium McCoy’s 5A Medium supplemented with 10% FBS (Fetal Bovine Serum) in an atmosphere of 95% air and 5% CO2 at 37 °C. Inhibition of cell growth induced by the tested compound was evaluated using a MTT assay. The cells were seeded in a sterile 96-well plate at a density of 15,000 cells per well and incubated for 24 h in growth medium. Afterward, the compound dissolved in H2O or DMSO was added to the cells maintaining the same proportion of solvent in each well. After 48 h of incubation in an atmosphere of 95% air and 5% CO2 at 37 °C, 10 μL of 5 mg/mL MTT prepared in PBS (0.136 M NaCl, 1.47 mM KH2PO4, 8 mM NaH2PO4, and 2.68 mM KCl) was added to each well, and the cell plate was incubated for another 4 h. […] Finally, absorbance of the cell plate was measured at a wavelength of 595 nm (Tecan M1000 infinite Pro). […] The absorbance measurement range was assessed between one value (average of triplicate points) containing 15,000 cells in McCoy’s 5A medium and in the absence of growth factors (which allows to determine the stable cell concentration) and another value (average of triplicate points) containing the usual growth medium (which allows to measure the maximum cell growth at 48 h). […]
# [6] = system: G2T6 (K+) dimeric HTelo G4 DNA; assay: Emission titration with G2T6 (K+); assay type: binding, human; details: Table S2, unit not given, ligand 2 μM, 100 mM KCl, 10 mM Li cacodylate, pH 7.3, exc 440 nm, em 590 nm, triplicate
# Method: as §1, §2, §3, §4
# [7] = system: G1 (K+) monomeric HTelo G4 DNA; assay: Emission titration with G1 (K+); assay type: binding, human; details: Table S2, unit not given, ligand 2 μM, 100 mM KCl, 10 mM Li cacodylate, pH 7.3, exc 440 nm, em 590 nm, triplicate
# Method: as §1, §2, §3, §4
# [8] = system: G1 (Na+) monomeric HTelo G4 DNA; assay: Emission titration with G1 (Na+); assay type: binding, human; details: Table S2, unit not given, ligand 2 μM, 100 mM NaCl, 10 mM Li cacodylate, pH 7.3, exc 440 nm, em 590 nm, triplicate
# Method: as §1, §2, §3, §4
sequence,measurement,setting,value
RRRRRRRR [Compound D8],"Association constant G2T6 (Na+), mean",[1],0.75
same,"Association constant G2T1 (K+), mean",[2],0.22
same,"Association constant G2T1 (Na+), mean",[3],0.31
same,precipitation on addition to the DNA solution,[4],caused precipitation
same,IC50,[5],43 µM
same,"Association constant G2T6 (K+), mean",[6],0.38
same,"Association constant G1 (K+), mean",[7],0.84
same,"Association constant G1 (Na+), mean",[8],0.47

# — article PMC10197068 (Bioconjugate Chemistry, 2023)
